Here are results for eleven compounds from ChEMBL document CHEMBL5236664, “Design, synthesis and biological evaluation of KRASG12C-PROTACs” (Bioorg Med Chem, 2023).

Active and inactive are the calls of the source. The calls are words filed in the database; no cut-off is given here.

In test [1] the test system is GTPase KRas (Homo sapiens), P01116 [G12C]. In words: In vivo target occupancy at KRAS G12C mutant in human MIA PaCa-2 cells xenografted athymic BALB/c nude mouse measured at 30 mins. Format: functional, cell-based. In general terms: A xenograft is tissue or cells of one species grown in another, often human tumour cells in immunodeficient mice.
Sequence of GTPase KRas (Homo sapiens), P01116 [G12C] (P01116 whole entry G12C): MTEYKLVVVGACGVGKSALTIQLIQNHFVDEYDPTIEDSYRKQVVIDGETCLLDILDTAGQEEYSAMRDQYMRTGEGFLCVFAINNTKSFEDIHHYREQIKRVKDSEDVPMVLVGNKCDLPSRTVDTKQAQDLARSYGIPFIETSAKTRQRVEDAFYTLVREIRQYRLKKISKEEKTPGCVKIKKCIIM
Test [2] relates to NCI-H358. The experiment in a line: Inhibition of ERK phosphorylation in human NCI-H358 cells at 1 to 10 uM incubated for 24 hrs by Western blot analysis. Format: cell-based. The conditions noted are these: dose 1-10 µM.
In test [3] the test system is NCI-H358. The experiment in a line: Antiproliferative activity against human NCI-H358 cells harboring KRAS G12C mutant assessed as inhibition of cell proliferation incubated for 48 hrs by MTT assay. Format: functional, cell-based. The conditions noted are these: NCI-H358, 48 h. (Tetrazolium dyes change colour on reduction, which living cells bring about.)
Test [4] deals with MIA PaCa-2. The experiment in a line: Antiproliferative activity against human MIA PaCa-2 cells harboring KRAS G12C mutant assessed as inhibition of cell proliferation incubated for 48 hrs by MTT assay. Type of test: functional, cell-based. The conditions noted are these: MIA PaCa-2, 48 h.
Test [5] relates to von Hippel-Lindau disease tumor suppressor/GTPase KRas (Homo sapiens), P01116+P40337 [G12C]. In words: Protac activity at VHL/KRAS G12C mutant in human NCI-H358 cells assessed as induction of KRAS G12C protein degradation at 1 uM incubated for 24 hrs by Western blot analysis. Format: cell-based. Background: Immunoblotting shows a protein as a band on a membrane.
For test [6] the test system is unchanged. In words: Protac activity at VHL/KRAS G12C mutant in human NCI-H358 cells assessed as induction of KRAS G12C protein degradation at 10 uM incubated for 24 hrs by Western blot analysis. Type of test: cell-based.
Test [7] shares this test system. The experiment in a line: Protac activity at VHL/KRAS G12C mutant in human NCI-H358 cells assessed as induction of KRAS G12C protein degradation at 10 uM preincubated for 1 hr with proteasome inhibitor, MG-132 followed by compound addition and measured after 24 hrs by Western blot analysis. Type of test: cell-based.
Test [8] shares this test system. The experiment in a line: Protac activity at VHL/KRAS G12C mutant in human NCI-H358 cells assessed as induction of KRAS G12C protein degradation incubated for 24 hrs by Western blot analysis. Type of test: cell-based. Particulars: dose 5-25 µM.
Test [9] concerns the target GTPase KRas (Homo sapiens, UniProt P01116, G12C). The experiment in a line: Induction of KRAS G12C degradation in human MIA PaCa-2 cells assessed as reduction in KRAS G12C protein level incubated for 24 hrs by immunoblotting analysis. Type of test: cell-based.
Test [10] concerns NCI-H358. The experiment in a line: Antiproliferative activity against human NCI-H358 cells harboring KRAS G12C mutant assessed as inhibition of cell growth incubated for 5 days by celltiter-glow luminescent cell viability assay. Format: functional, cell-based. Particulars: NCI-H358, 120 h.
Test [11] relates to MIA PaCa-2. In words: Antiproliferative activity against human MIA PaCa-2 cells harboring KRAS G12C mutant assessed as inhibition of cell growth incubated for 5 days by celltiter-glow luminescent cell viability assay. Format: functional, cell-based. Particulars: MIA PaCa-2, 120 h.
Test [12] concerns MIA PaCa-2. The experiment in a line: Antiproliferative activity against human MIA PaCa-2 cells harboring KRAS G12C mutant assessed as inhibition of cell growth. Type of test: functional, cell-based.
The test system of test [13] is NCI-H358. In words: Antiproliferative activity against human NCI-H358 cells harboring KRAS G12C mutant assessed as inhibition of cell growth. Type of test: functional, cell-based.
In test [14] the test system is Protein cereblon/GTPase KRas (Homo sapiens), P01116+Q96SW2 [G12C]. The experiment in a line: Protac activity at CRBN/KRAS G12C mutant in human NCI-H358 cells assessed as induction of KRAS G12C protein degradation at 1 uM incubated for 24 hrs by Western blot analysis. Type of test: cell-based.
The test system is the same in test [15]. In words: Protac activity at CRBN/KRAS G12C mutant in human NCI-H358 cells assessed as induction of KRAS G12C protein degradation at 10 uM preincubated for 1 hr with proteasome inhibitor, MG-132 followed by compound addition and measured after 24 hrs by Western blot analysis. Format: cell-based.

Sequence of GTPase KRas (P01116 whole entry G12C): as above

Compound `C=CC(=O)N1CCN(c2ncnc3c(F)c(-c4c(O)cccc4F)c(Cl)cc23)CC1` showed an Occ in test [1] of more than 75%.

Regarding `C=CC(=O)N1CCN(c2nc(=O)n(-c3ccc(C(=O)NCCOCCOCCOCCOCC(=O)N[C@H](C(=O)N4C[C@H](O)C[C@H]4C(=O)NCc4ccc(-c5scnc5C)cc4)C(C)(C)C)cc3C(C)C)c3cc(-c4ccccc4Cl)c(Cl)cc23)[C@@H](C)C1`, the inhibition result in test [2] was “Active”. Moreover, the IC50 (commonly the concentration needed to halve the response being measured) in test [3] is 11.1 µM; in [4], 17.9 µM. Moreover, the result in test [5] and in [7] was inactive. Further, the result in test [6] was Active. In test [8], the Activity entry was “Dose-Dependent Effect”.

For the compound `C=C(F)C(=O)N1CCN(c2nc(OC[C@@H]3CCCN3CCCOCCC(=O)N[C@H](C(=O)N3C[C@H](O)C[C@H]3C(=O)NCc3ccc(-c4scnc4C)cc3)C(C)(C)C)nc3c2CCN(c2cccc4cccc(Cl)c24)C3)C[C@@H]1CC#N`, in [9], the EC50 – broadly, the concentration needed to bring the measured effect to its halfway point – is 0.32 µM.

Regarding `C=CC(=O)N1CCN(c2nc(=O)n(-c3ccc(C(=O)O)cc3C(C)C)c3cc(-c4ccccc4Cl)c(Cl)cc23)[C@@H](C)C1`, the IC50 in test [3] and in test [4] was more than 10 µM throughout.

On to `C=CC(=O)N1CCN(c2nc(NCCCN3CCN(CCCNc4cccc5c4C(=O)N(C4CCC(=O)NC4=O)C5=O)CC3)nc3c(F)c(-c4cc(O)cc5ccccc45)c(Cl)cc23)CC1` (configuration not stated), for which the IC50 in [10] was found to be 0.51 µM; in test [11], 4.14 µM.

`C=CC(=O)N1CCN(c2nc(=O)n(-c3ccccc3C(C)C)c3cc(-c4ccccc4Cl)c(Cl)cc23)[C@@H](C)C1`: the IC50 in test [3] amounted to 1.48 µM; in [4] it was 0.77 µM.

As for `C=CC(=O)N1CCN(c2nc(=O)n(-c3ccc(C(=O)NCCCCCC(=O)N[C@H](C(=O)N4C[C@H](O)C[C@H]4C(=O)NCc4ccc(-c5scnc5C)cc4)C(C)(C)C)cc3C(C)C)c3cc(-c4ccccc4Cl)c(Cl)cc23)[C@@H](C)C1`, the figures for the IC50 in [3] and in [4] were 14.2 µM and 24.2 µM, respectively. Further, the outcome in test [5] and in [7] was inactive. Also, the outcome in test [6] was Active.

Turning to `C=CC(=O)N1CCN(c2nc(=O)n(-c3c(C)ccnc3C(C)C)c3nc(-c4c(O)cccc4F)c(F)cc23)[C@@H](C)C1` [SOTORASIB], the IC50 in test [12] came out at 0.022 µM.

In the case of `C=CC(=O)N1CCN(c2nc(=O)n(-c3ccc(C(=O)NCc4cn(CCOCCOCCOCCOCC(=O)N[C@H](C(=O)N5C[C@H](O)C[C@H]5C(=O)NCc5ccc(-c6scnc6C)cc5)C(C)(C)C)nn4)cc3C(C)C)c3cc(-c4ccccc4Cl)c(Cl)cc23)[C@@H](C)C1`, the inhibition result in [2] was “Active”. In addition, the IC50 in [3] is 17.1 µM; in [4], 24.3 µM. Besides, the outcome in test [5] and in [7] was inactive. Also, in test [6], the outcome was Active.

With `C=C(F)C(=O)N1CCN(c2nc(OC[C@@H]3CCCN3C)nc3c2CCN(c2cccc4cccc(Cl)c24)C3)C[C@@H]1CC#N` [ADAGRASIB], the IC50 in test [13] came out at 0.001 µM.

Turning to `C=CC(=O)N1CCN(c2nc(=O)n(-c3ccc(C(=O)NCCCC(=O)Nc4cccc5c4CN(C4CCC(=O)NC4=O)C5=O)cc3C(C)C)c3cc(-c4ccccc4Cl)c(Cl)cc23)[C@@H](C)C1` (some centres not stated), the outcome in test [14] and in test [15] was inactive. In addition, the results for the IC50 in [3] and in test [4] were 22.7 µM and 17.1 µM, respectively.
